According to patent publication US7462614B2, “Imidazotriazine compounds” (Smithkline Beecham Corporation, priority 2003, dated 2008):

Target: T1, truncated human PLK1 (kinase domain) (Homo sapiens, UniProt P53350)
T1 construct: made in house; host or cells: baculovirus-infected T. ni insect cells
Experiment: Assay for Inhibition of PLK1 (33P SPA enzyme activity)
Format: biochemical
Details: 1 μM ATP, 2 nM enzyme; read-out: Ave pIC50 PLK Enzyme Inhibition (converted)
Protocol: I. Assay for Inhibition of PLK1
A. Preparation of 6× N-Terminal His-Tagged PLK Kinase Domain
All procedures are performed at 4° C. Cells are lysed in 25 mM HEPES, 200 mM NaCl, 25 mM imidazole; pH 8.0. The homogenate is centrifuged at 14K rpm in a SLA-1500 rotor for 40 min and the supernatant filtered through a 1.2 micron filter. The supernatant is loaded onto a Nickel chelating Sepharose (Amersham Pharmacia) column and washed with 25 mM HEPES, 500 mM NaCl, 25 mM imidazole; pH 8.0. […] PLK is concentrated using a 10 kDa molecular weight cutoff membrane and then loaded onto a Superdex 75 gel filtration (Amersham BioSciences) column equilibrated in 25 mM HEPES, 1 mM DTT, 500 mM NaCl; pH 8.0. Fractions containing PLK are determined by SDS-PAGE. PLK is pooled, aliquoted and stored at […]. Samples are quality controlled using mass spectrometry.
B. Enzyme Activity±Inhibitors is Determined As Follows:
Compounds are added to the plate (1 μL in 100% DMSO).
Immediately upon addition of enzyme and thorough mixing, add 20 uL per well into 384-well white plates containing compounds and controls. […] The enzymatic reaction is stopped with 50 μl of bead mix (50 mM EDTA, 2 mg/ml Streptavidin-coated SPA beads in Standard Dulbecco's PBS (without Mg^2+and Ca^2+), and 60 μM ATP).

T1 sequence (P53350 21-346): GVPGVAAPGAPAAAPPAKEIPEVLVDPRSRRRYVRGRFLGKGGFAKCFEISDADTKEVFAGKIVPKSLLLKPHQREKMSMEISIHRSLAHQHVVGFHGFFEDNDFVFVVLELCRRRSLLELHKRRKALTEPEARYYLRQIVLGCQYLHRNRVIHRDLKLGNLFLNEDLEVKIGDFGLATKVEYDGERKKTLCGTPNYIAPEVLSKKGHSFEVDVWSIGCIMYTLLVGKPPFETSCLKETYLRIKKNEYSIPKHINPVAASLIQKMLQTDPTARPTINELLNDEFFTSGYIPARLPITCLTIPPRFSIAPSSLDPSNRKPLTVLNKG

Q: For `COc1cc(Nc2ncc3c(C)nc(-c4ccc(F)cc4)n3n2)cc(OC)c1OC` [Example 4, 7-(4-Fluorophenyl)-5-methyl-N-(3,4,5-trimethoxyphenyl)imidazo-[5,1-f][1,2,4]triazin-2-amine], which IC50 is on record?
A: Its IC50 is < 0.1 µM.

Q: How did the IC50 turn out when `Cc1nc(-c2cccc(Br)c2)n2nc(Nc3ccc(N4CCOCC4)c(Cl)c3)ncc12` [Example 15, 7-(3-Bromophenyl)-N-(3-chloro-4-morpholin-4-ylphenyl)-5-methylimidazo[5,1-f][1,2,4]triazin-2-amine] was run?
A: Its IC50 is 0.1 to 10 µM.

Q: With `COc1ccc(Nc2ncc3c(C)nc(C(C)c4ccccc4)n3n2)cc1` (stereo not drawn) [Example 77, 5-Methyl-N-[4-(methyloxy)phenyl]-7-(1-phenylethyl)imidazo[5,1-f][1,2,4]triazin-2-amine] as the compound, how does the IC50 read?
A: Its IC50 is > 10 µM.

Q: With `COc1cc(Nc2ncc3c(C)nc(-c4ccccc4NC(=O)C(F)(F)F)n3n2)cc(OC)c1OC` [Example 7, 2,2,2-Trifluoro-N-(2-{5-methyl-2-[(3,4,5-trimethoxyphenyl)amino]-imidazo[5,1-f][1,2,4]triazin-7-yl}phenyl)acetamide] as the compound, how does the IC50 read?
A: Its IC50 is 0.1 to 10 µM.

Q: For `Cc1nc(-c2ccccc2)n2nc(NC3CCOCC3)ncc12` [Example 101, 5-Methyl-7-phenyl-N-(tetrahydro-2H-pyran-4-yl)imidazo[5,1-f][1,2,4]triazin-2-amine], which IC50 is on record?
A: The IC50 was > 10 µM.

Q: `COC(=O)c1cccc(-c2nc(C)c3cnc(Nc4cc(OC)c(OC)c(OC)c4)nn23)c1` [Example 12, Methyl 3-{5-methyl-2-[(3,4,5-trimethoxyphenyl)amino]imidazo[5,1-f][1,2,4]triazin-7-yl}benzoate] was tested. Which IC50 did it give?
A: The IC50 was 0.1 to 10 µM.

Q: `COc1cc(Nc2ncc3c(C)nc(-c4cccc(-c5ccccc5C(F)(F)F)c4)n3n2)cc(OC)c1OC` [Example 61, 5-Methyl-7-[2′-(trifluoromethyl)-1,1′-biphenyl-3-yl]-N-(3,4,5-trimethoxyphenyl)imidazo[5,1-f][1,2,4]triazin-2-amine] was tested. Which IC50 did it give?
A: The IC50 was 0.1 to 10 µM.

Q: Which IC50 does the source give for `CCS(=O)(=O)c1ccc(OC)c(Nc2cccc(-c3nc(C)c4cnc(Nc5cc(OC)c(OC)c(OC)c5)nn34)c2)c1` [Example 63, 7-(3-{[5-(Ethylsulfonyl)-2-methoxyphenyl]amino}phenyl)-5-methyl-N-(3,4,5-trimethoxyphenyl)imidazo[5,1-f][1,2,4]triazin-2-amine] here?
A: Its IC50 is > 10 µM.

Q: `COc1ccc(Nc2ncc3c(C)nc(Cc4ccccc4)n3n2)cc1` [Example 88, 5-Methyl-N-[4-(methyloxy)phenyl]-7-(phenylmethyl)imidazo[5,1-f][1,2,4]triazin-2-amine] was tested. Which IC50 did it give?
A: The IC50 was 0.1 to 10 µM.

Q: How did the IC50 turn out when `COc1cc(Nc2ncc3c(C)nc(-c4cccc(/C=C/C(N)=O)c4)n3n2)cc(OC)c1OC` [Example 17, (2E)-3-(3-{5-Methyl-2-[(3,4,5-trimethoxyphenyl)amino]imidazo[5,1-f][1 2,4]triazin-7-yl}phenyl)prop-2-enamide] was run?
A: Its IC50 is < 0.1 µM.

Q: With `COc1cc(Nc2ncc3c(C)nc(-c4cc5ccccc5[nH]4)n3n2)cc(OC)c1OC` [Example 32, 7-(1H-Indol-2-yl)-5-methyl-N-(3,4,5-trimethoxyphenyl)imidazo-[5,1-f][1,2,4]triazin-2-amine] as the compound, how does the IC50 read?
A: Its IC50 is 0.1 to 10 µM.

Q: How did the IC50 turn out when `COc1ccc(Nc2ncc3c(C)nc(-c4cccc(OC)c4)n3n2)cc1` [Example 74, 5-Methyl-7-[3-(methyloxy)phenyl]-N-[4-(methyloxy)phenyl]-imidazo[5,1-f][1,2,4]triazin-2-amine] was run?
A: The IC50 was 0.1 to 10 µM.

Q: `COc1ccc(Nc2ncc3c(C)nc(-c4cccc(C(F)(F)F)c4)n3n2)c(OC)c1` [Example 54, N-(2,4-Dimethoxyphenyl)-5-methyl-7-[3-(trifluoromethyl)phenyl]-imidazo[5,1-f][1,2,4]triazin-2-amine] was tested. Which IC50 did it give?
A: The IC50 was 0.1 to 10 µM.

Q: For `Cc1nc(-c2cccc(C(F)(F)F)c2)n2nc(Nc3ccc(OCCN4CCCC4)cc3)ncc12` [Example 50, 5-Methyl-N-[4-(2-pyrrolidin-1-ylethoxy)phenyl]-7-[3-(trifluoromethyl)phenyl]imidazo[5,1-f][1,2,4]triazin-2-amine], which IC50 is on record?
A: The IC50 was 0.1 to 10 µM.

Q: `Cc1nc(-c2ccccc2)n2nc(Nc3ccccc3)ncc12` [Example 105, 5-Methyl-N,7-diphenylimidazo[5,1-f][1,2,4]triazin-2-amine] was tested. Which IC50 did it give?
A: Its IC50 is 0.1 to 10 µM.

Q: With `COc1ccc(Nc2ncc3c(C)nc(-c4ccsc4)n3n2)cc1` [Example 79, 5-Methyl-N-[4-(methyloxy)phenyl]-7-(3-thienyl)imidazo[5,1-f][1,2,4]triazin-2-amine] as the compound, how does the IC50 read?
A: Its IC50 is 0.1 to 10 µM.

Q: For `Cc1nc(-c2cccc(C(F)(F)F)c2)n2nc(Nc3ccc(S(N)(=O)=O)cc3)ncc12` [Example 45, 4-({5-Methyl-7-[3-(trifluoromethyl)phenyl]imidazo[5,1-f][1,2,4]triazin-2-yl}amino)benzenesulfonamide], which IC50 is on record?
A: The IC50 was 0.1 to 10 µM.

Q: How did the IC50 turn out when `COc1cc(Nc2ncc3c(C)nc(-c4cccn4C)n3n2)cc(OC)c1OC` [Example 34, 5-Methyl-7-(1-methyl-1H-pyrrol-2-yl)-N-(3,4,5-trimethoxyphenyl)-imidazo[5,1-f][1,2,4]triazin-2-amine] was run?
A: Its IC50 is 0.1 to 10 µM.

Q: Which IC50 does the source give for `COc1ccc(Nc2ncc3c(C)nc(C4CC4)n3n2)cc1` [Example 84, 7-Cyclopropyl-5-methyl-N-[4-(methyloxy)phenyl]-imidazo[5,1-f][1,2,4]triazin-2-amine] here?
A: The IC50 was 0.1 to 10 µM.

Q: For `COc1cc(Nc2ncc3c(C)nc(-c4ccccc4Nc4cccc(C(F)(F)F)c4)n3n2)cc(OC)c1OC` [Example 39, 5-Methyl-7-(2-{[3-(trifluoromethyl)phenyl]amino}phenyl)-N-(3,4,5-trimethoxyphenyl)imidazo[5,1-f][1,2,4]triazin-2-amine], which IC50 is on record?
A: Its IC50 is > 10 µM.

Q: `COc1ccc(Nc2ncc3c(C)nc(-c4cccs4)n3n2)cc1` [Example 83, 5-Methyl-N-[4-(methyloxy)phenyl]-7-(2-thienyl)imidazo[5,1-f][1,2,4]triazin-2-amine] was tested. Which IC50 did it give?
A: Its IC50 is 0.1 to 10 µM.

Q: With `COc1cc(Nc2ncc3c(C)nc(-c4cccc(Nc5ccc(-n6ccnc6)cc5)c4)n3n2)cc(OC)c1OC` [Example 65, 7-(3-{[4-(1H-Imidazol-1-yl)phenyl]amino}phenyl)-5-nv-5-methyl-N-(3,4,5-trimethoxyphenyl)imidazo[5,1-f][1,2,4]triazin-2-amine] as the compound, how does the IC50 read?
A: Its IC50 is > 10 µM.

Q: For `COc1ccc(Nc2ncc3c(C)nc(-c4ccoc4)n3n2)cc1` [Example 80, 7-(3-Furanyl)-5-methyl-N-[4-(methyloxy)phenyl]imidazo-[5,1-f][1,2,4]triazin-2-amine], which IC50 is on record?
A: Its IC50 is 0.1 to 10 µM.

Q: How did the IC50 turn out when `Cc1nc(-c2ccccc2)n2nc(Nc3ccc(OCCN(C)C)cc3)ncc12` [Example 96, N-(4-{[2-(Dimethylamino)ethyl]oxy}phenyl)-5-methyl-7-phenylimidazo[5.1-f][1,2,4]triazin-2-amine] was run?
A: Its IC50 is 0.1 to 10 µM.

Q: How did the IC50 turn out when `COc1cc(Nc2ncc3c(C)nc(-c4cncc(Br)c4)n3n2)cc(OC)c1OC` [Example 11, 7-(5-Bromopyridin-3-yl)-5-methyl-N-(3,4,5-trimethoxyphenyl)-imidazo[5.1-f][1,2,4]triazin-2-amine] was run?
A: The IC50 was 0.1 to 10 µM.

Q: `COc1cc(Nc2ncc3c(C)nc(-c4cccc(Nc5ccc(CN6CCN(C)CC6)cc5)c4)n3n2)cc(OC)c1OC` [Example 68, 5-Methyl-7-[3-({4-[(4-methylpiperazin-1-yl)methyl]phenyl}-amino)phenyl]-N-/(3,4,5-trimethoxyphenyl)imidazo[5,1-f][1,2,4]triazin-2-amine] was tested. Which IC50 did it give?
A: The IC50 was > 10 µM.

Q: With `Cc1nc(-c2ccccc2)n2nc(NC3CCCCC3)ncc12` [Example 100, N-Cyclohexyl-5-methyl-7-phenylimidazo[5,1-f][1,2,4]triazin-2-amine] as the compound, how does the IC50 read?
A: Its IC50 is > 10 µM.
